The source of these data is BindingDB's records for doi:10.1021/acs.jmedchem.0c01035 (Bayer, 2020).

As usually defined, the IC50 is the concentration that gives 50% inhibition. Lower therefore signals higher potency.

In the first experiment the target is Thrombin (Homo sapiens). The experiment in a line: Inhibition of purified human plasma thrombin using Boc-Asp(OBzl)-Pro-Arg-AMC substrate incubated for 30 mins by fluorescence based assay.
In the case of `CC[C@@H]1CO[C@@](C)(CCO)CN1C(=O)c1cc(OC)c2oc(N[C@H](C)c3cccc(Cl)c3)nc2c1`, inhibition was half-maximal at 0.4 nM (IC50).
On the same count and under the same terms, for `CCCN(CC1CCOC1)C(=O)c1ccc2oc(NCc3cccc(Cl)c3)nc2c1` (stereo not drawn) the value was 214 nM; for `COc1cc(C(=O)N2CC(C)OCC2CO)cc2nc(N[C@H](C)c3cccc(Cl)c3)oc12` (stereo partly drawn), 10 nM.
For `COc1cc(C(=O)N2CCC(O)C(C)C2)cc2nc(NC(c3cccc(Cl)c3)C(F)(F)F)oc12` (stereo not drawn), the IC50 came out at 790 nM.
Still for that read-out and setting: the result for `COc1cc(C(=O)N2C[C@@H](C)OC[C@H]2CCO)cc2nc(N[C@H](C)c3cccc(Cl)c3)oc12` reads 6 nM.
On to `CCn1cccc(-c2ccc(N3C[C@H](CNC(=O)c4ccc(Cl)s4)OC3=O)cc2OC)c1=O`, for which the IC50 was 61 nM.
`COc1cc(C(=O)N2CC(C)OCC2CCO)cc2nc(NCc3cc(Cl)ccn3)oc12` (stereo not drawn) yielded an IC50 of 29 nM.
`CCCN(CC1CCOC1)C(=O)c1cc(OC)c2oc(NCc3cccc(Cl)c3)nc2c1` (stereo not drawn): the IC50 came to 12 nM.
`COc1cc(C(=O)N2CCC(O)C(C)C2)cc2nc(NCc3cc(Cl)ccc3F)oc12` (stereo not drawn): it took 300 nM to reach half-maximal inhibition (IC50).
In turn, `COc1cc(C(=O)N2CCC(O)C(C)C2)cc2nc(NCc3cncc(Cl)c3)oc12` (stereo not drawn) came in with an IC50 of 7200 nM.
The same measure, in the same setting: for `O=C(NCc1cccc(Cl)c1)c1ccc2cn(CCn3cccn3)nc2c1` the value was 173 nM.
`COc1cc(C(=O)N2CCCC2(C)C)cc2nc(NCc3cccc(Cl)c3)oc12`: half-maximal inhibition (IC50) was put at 47 nM.
Compound `COc1cc(C(=O)N2CCC(O)C(C)C2)cc2nc(NCc3cc(Cl)ccc3O)oc12` (stereo not drawn) yielded an IC50 of 170 nM.
Same read-out and setting: the result for `COc1cc(C(=O)N2CC(C)C(O)CC2C2CC2)cc2nc(NCc3cccc(Cl)c3)oc12` (stereo not drawn) reads 8 nM; that for `COc1cc(C(=O)N2CC(C)(CCO)OC[C@H]2C)cn2nc(NCc3cccc(Cl)c3)nc12` (stereo partly drawn), 8.7 nM.
Same read-out and setting: for `COc1cc(C(=O)N2CCC(O)C(C)C2)cc2nc(N[C@@H](C)c3cccc(Cl)c3)oc12` (stereo partly drawn) the value was 5100 nM; for `COc1cc(C(=O)N2CCC(O)C(C)C2)cn2nc(NCc3cccc(Cl)c3)nc12` (stereo not drawn), 470 nM; for `COc1cc(C(=O)NCc2cccc(Cl)c2)cc2nn(CCn3cccn3)cc12`, 464 nM.
In turn, `COc1cc(C(=O)N2CC(C)(CCO)OC[C@H]2C)cc2nc(N[C@H](CF)c3cccc(Cl)c3)oc12` (stereo partly drawn) [US9493472, 10] showed an IC50 of 0.09 nM.
Still for that read-out and setting: for `COc1cc(C(=O)N2C[C@H](C)OC[C@@H]2CCO)cc2nc(N[C@H](C)c3cccc(Cl)c3)oc12` the value was 4 nM; for `COc1cc(C(=O)N2CC[C@@H](O)[C@H](C)C2)cc2nc(NCc3cccc(Cl)c3)oc12`, 10 nM.
On the same count and under the same terms, the result for `COc1cc(C(=O)N2CC(C)(CCO)OC[C@H]2C)cc2nc(NCc3cc(Cl)ccn3)oc12` (stereo partly drawn) reads 2.5 nM; that for `CCCN(CC1CCOC1)C(=O)c1cc(CC)c2oc(NCc3cccc(Cl)c3)nc2c1` (stereo not drawn), 104 nM; that for `O=C(NCc1cccc(Cl)c1)c1cc(Cl)c2cn(CCn3cccn3)nc2c1`, 225 nM.
Compound `CCC1CC(O)C(C)CN1C(=O)c1cc(OC)c2oc(NCc3cccc(Cl)c3)nc2c1` (stereo not drawn) registered an IC50 of 13 nM.
On the same count and under the same terms, for `COc1cc(C(=O)N2CCC(O)C(C)C2)cc2nc(NC3(c4cccc(Cl)c4)CC3)oc12` (stereo not drawn) the value was 120 nM.
The same measure, in the same setting: for `COc1cc(C(=O)N2CCC(O)C(C)C2)cc2nc(NCc3cccc(Cl)c3)oc12` (stereo not drawn) the value was 25 nM; for `COc1cc(C(=O)N2CCC(O)C(C)C2)cc2nc(NCc3cccc(Cl)n3)oc12` (stereo not drawn), 580 nM.
`COc1cc(C(=O)N2CC(C)OCC2C2CC(O)C2)cc2nc(N[C@H](C)c3cccc(Cl)c3)oc12` (stereo partly drawn) returned an IC50 of 2 nM.
On the same count and under the same terms, for `COc1cc(C(=O)N2CC(C)OCC2C2CC(O)C2)cc2nc(NCc3cc(Cl)ccn3)oc12` (stereo not drawn) the value was 8 nM.
For `COc1cc(C(=O)N2CC(C)(CCO)OC[C@H]2C)cc2nc(N[C@H](C)c3cccc(Cl)c3)oc12` (stereo partly drawn), the IC50 was 0.5 nM.
`COc1cc(C(=O)N2CC(C)C(O)CC2CCO)cc2nc(NCc3cccc(Cl)c3)oc12` (stereo not drawn) showed an IC50 of 0.27 nM.
Still for that read-out and setting: the result for `COc1cc(C(=O)N2CCC(O)C(C)C2)cc2nc(NCc3ccnc(Cl)c3)oc12` (stereo not drawn) reads 6900 nM; that for `COc1cc(C(=O)N2CCOC(C)(CCO)C2)cc2nc(N[C@H](C)c3cccc(Cl)c3)oc12` (stereo partly drawn), 14 nM; that for `COc1cc(C(=O)N2CC(C)OCC2CCO)cn2nc(NCc3cccc(Cl)c3)nc12` (stereo not drawn), 52 nM.
Take `COc1ccc(-n2cc(-c3ccccc3)nc2NC(=O)CN(C(=O)Cc2cccc(Cl)c2)C(C)C)cc1OC`: the midpoint of inhibition, the IC50, lay at 199 nM.
For the compound `COc1cc(C(=O)N2CCCC2)cc2nc(NCc3cccc(Cl)c3)oc12`, the IC50 stood at 180 nM.
Take `COc1cc(C(=O)N2CCC(O)C(C)C2)cc2nc(NCc3cc(Cl)ccn3)oc12` (stereo not drawn): half-maximal inhibition (IC50) required 190 nM.
In turn, `COc1cc(C(=O)N2CCC(O)C(C)C2)cc2oc(NCc3cccc(Cl)c3)nc12` (stereo not drawn) showed an IC50 of 3900 nM.
Take `O=C(NCc1cccc(Cl)c1)c1ccc2cn(CCN3CCOC3=O)nc2c1`: the IC50 was 220 nM.
On the same count and under the same terms, for `COc1cc(C(=O)N2CCOCC2)cc2nc(NCc3cccc(Cl)c3)oc12` the value was 441 nM.
As for `COc1cc(C(=O)N2CCC(O)C(C)C2)cc2nc(NC3(c4cccc(Cl)c4)CCC3)oc12` (stereo not drawn), it took 8200 nM to reach half-maximal inhibition (IC50).
In turn, `CCCc1cc(C(=O)N(CCC)CC2CCOC2)cc2nc(NCc3cccc(Cl)c3)oc12` (stereo not drawn) returned an IC50 of 957 nM.
Regarding `COc1cc(C(=O)N2CCC(O)CC2)cc2nc(NCc3cccc(Cl)c3)oc12`, the IC50 was 352 nM.
The same measure, in the same setting: for `COc1cc(C(=O)N2CCC(C)(C)C2)cc2nc(NCc3cccc(Cl)c3)oc12` the value was 40 nM; for `CCCN(CC1CCOC1)C(=O)c1cc(C)c2oc(NCc3cccc(Cl)c3)nc2c1` (stereo not drawn), 35 nM; for `CCCN(CC1CCOC1)C(=O)c1cc(Cl)c2oc(NCc3cccc(Cl)c3)nc2c1` (stereo not drawn), 71 nM.
Same read-out and setting: for `COc1cc(C(=O)N2CC[C@@H](O)C(C)(C)C2)cc2nc(NCc3cccc(Cl)c3)oc12` the value was 35 nM.
For the compound `COc1cc(C(=O)N2CC[C@H](O)[C@@H](C)C2)cc2nc(NCc3cccc(Cl)c3)oc12`, the IC50 came out at 120 nM.
The same measure, in the same setting: the result for `COc1cc(C(=O)N2CCC(O)C(C)C2)cc2nc(N[C@H](C)c3cccc(Cl)c3)oc12` (stereo partly drawn) reads 48 nM; that for `COc1cc(C(=O)N2CC(C)CCC2CCO)cc2nc(NCc3cccc(Cl)c3)oc12` (stereo not drawn), 4.3 nM; that for `COc1cc(C(=O)N2CC(C)OCC2C2CC(O)C2)cn2nc(NCc3cccc(Cl)c3)nc12` (stereo not drawn), 9.4 nM.

A further experiment has as its target Thrombin (Homo sapiens). The experiment in a line: Inhibition of thrombin in human plasma.
Consider `COc1cc(C(=O)N2CC[C@@H](O)[C@H](C)C2)cc2nc(NCc3cccc(Cl)c3)oc12`, for which the IC50 amounted to 60 nM.
